# Source: patent US20220153751A1, “BIFUNCTIONAL COMPOUNDS” (BioTheryX, Inc., priority 2018, published 2022)
# How the values were obtained:
# Format in all cases: cell-based
# IKAROS = target: T1, IKAROS (Homo sapiens, UniProt Q13422+Q96SW2); assay: IKAROS degradation assay (Western blot, MV-4-11 cells); settings: MV4-11, 6-8 h
# T1 construct: endogenous in cells; host or cells: MV-4-11
# Procedure, shortened: (§1)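 Western blot, infrared fluorescence read-out: % degradation versus DMSO after 6-8 h compound treatment of ~10^6 cells/mL. RIPA whole-cell lysates on 4-12% gels, nitrocellulose transfer. Binned A <25%, B 25–<50%, C 50–<75%, D ≥75%.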
# CK1α = target: T2, CK1α (Homo sapiens, UniProt P48729+Q96SW2); assay: CK1α degradation assay (Western blot, MV-4-11 cells); settings: MV4-11, 6-8 h
# T2 construct: Whole cell extracts were prepared using RIPA buffer; endogenous in cells; host or cells: MV-4-11
# Method: MV-4-11 cells were grown in RPMI 1640 media supplemented with 10% fetal bovine serum, streptomycin and penicillin.
# Cells were cultured at approximately 10^6 cells per mL and incubated in DMSO or the indicated compound for 6-8 h. Whole cell extracts were prepared using RIPA buffer according to manufacturer's protocol (Pierce). Briefly, 3×10^6 cells were washed once in PBS, the cell pellets were resuspended in RIPA buffer and allowed to incubate for 15 minutes on ice. Cells debris was removed by centrifugation and the cleared whole cell lysates were transferred to new tubes for further analysis.
# For Western blot analysis, whole cell protein extracts were separated on 4-12% SDS-polyacrylamide gels, transferred to nitrocellulose and probed with the indicated primary antibodies. Membranes were subsequently washed and probed with the appropriate IRDye secondary antibodies (LI-COR). The signal was detected using the Odyssey Imaging System (LI-COR).
# The following antibodies were used in these studies: Anti-eRF3/GSPT1: Abcam, ab126090 (Cambridge, Mass.); Anti-Ikaros: Abcam, ab191394 (Cambridge, Mass.); Anti-CK1α: Abcam, ab108296 (Cambridge, Mass.); Anti-CDK9: Santa Cruz Biotechnology, sc13130 (Dallas, Tex.); Anti-CDK16: Millipore Sigma, HPA001366 (St. Louis, Mo.); 3-actin (8H10comD10) mouse monoclonal antibody: Cell Signaling Technology, #3700 (Danvers, Mass.); IRDye 680RD Goat anti-rabbit antibody: LI-COR, 926-68071 (Lincoln, Nebr.); IRDye 800CW Goat anti-mouse antibody: LI-COR, 926-32210 (Lincoln, Nebr.).
# CDK9 activities are shown in Table 4 at two different concentrations. CDK16 activities are shown in Table 5 at two different concentrations. In each of Tables 1-5, the % degradation values are reported as “A”, “B”, “C”, or “D”. “A” represents a % degradation value of less than 25% (value <25%). “B” represents a % degradation value of equal to or more than 25% and less than 50% (25%≤value<50%). “C” represents a % degradation value of equal to or more than 50% and less than 75% (50%≤value<75%). “D” represents a % degradation value of equal to or more than 75% (value ≥75%).
# GSPT1 = target: T3, GSPT1 (Homo sapiens, UniProt P15170+Q96SW2); assay: GSPT1 degradation assay (Western blot, MV-4-11 cells); settings: MV4-11, 6-8 h
# T3 construct: Whole cell extracts were prepared using RIPA buffer; endogenous in cells; host or cells: MV-4-11
# Procedure, shortened: as §1
# CDK9 = target: T4, CDK9 (Homo sapiens, UniProt P50750); assay: CDK9 degradation assay (Western blot, MV-4-11 cells); settings: 6-8 h; for Dmax at 0.1 µM: MV4-11, 0.1 μM; for Dmax at 1 µM: MV4-11, 1 μM
# T4 construct: Whole cell extracts were prepared using RIPA buffer; endogenous in cells; host or cells: MV-4-11
# Procedure, shortened: as §1
# CDK16 = target: T5, CDK16 (Homo sapiens, UniProt Q00536); assay: CDK16 degradation assay (Western blot, MV-4-11 cells); settings: 6-8 h; for Dmax at 0.1 µM: MV4-11, 0.1 μM; for Dmax at 1 µM: MV4-11, 1 μM
# T5 construct: Whole cell extracts were prepared using RIPA buffer; endogenous in cells; host or cells: MV-4-11
# Procedure, shortened: as §1
# MOLM-13 cells = assay: MOLM-13 cell viability assay (CellTiter-Glo); settings: Homo sapiens, MOLM-13, 72 h, 3 days, read-out: MOLM-13 Cell Viability % DMSO at 1 μM
# Procedure, shortened: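 MOLM-13 cells at 2500 cells/well were exposed to compound for 3 days at 37 °C. Viability was read by CellTiter-Glo luminescence and expressed as % of DMSO control, binned A (<50%), B (50–<70%), C (70–<90%) or D (≥90%).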
# IL-1β = IL-1β inhibition assay, LPS-induced PBMCs / CD14+ monocytes (Meso Scale); settings: 1 h pretreatment, 100 ng/mL LPS 18-24 h
# Procedure, shortened: (§2)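 Thawed human PBMCs or CD14+ mobilized peripheral blood monocytes, 200,000 cells/well in RPMI-1640/10% FBS, pretreated with compound or DMSO 1 h, then stimulated with 100 ng/mL LPS for 18-24 h. Supernatant cytokine measured by Meso Scale; % inhibition binned A–D (<50%, 50–70%, 70–90%, ≥90%), fold-change binned A–D (≤0.1, ≤0.5, ≤1, >1).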
# IL-6 = IL-6 inhibition assay, LPS-induced PBMCs / CD14+ monocytes (Meso Scale); settings: 1 h pretreatment, 100 ng/mL LPS 18-24 h
# Procedure, shortened: as §2
# TNF-α = TNF-α inhibition assay, LPS-induced PBMCs / CD14+ monocytes (Meso Scale); settings: 1 h pretreatment, 100 ng/mL LPS 18-24 h
# Procedure, shortened: as §2
# IL-2 = IL-2 fold-change assay, anti-CD3 stimulated PBMCs (Mesoscale); settings: PBMC, PBMCs on anti-human CD3, 24 h, fold difference from the DMSO control
# Method: For the IL-2 analysis, 96 well plates were precoated with 1 μg/mL anti-human CD3 antibody (OK3, eBioscience Inc., San Diego, Calif.). After washing with PBS, the indicated compound was added (50 μL/well) followed by PBMCs diluted at 3-4 million cells/mL (150 μL/well). Plates were incubated for 24 h and the supernatants collected for Mesoscale IL-2 analysis. IL-2 activity is measured as fold difference from the DMSO control.
# In Table 6, the % inhibition values are reported as “A”, “B”, “C”, or “D”. “A” represents a % inhibition value of less than 50% (value <50%). “B” represents a % inhibition value of equal to or more than 50% and less than 70% (50%≤value<70%). “C” represents a % inhibition value of equal to or more than 70% and less than 90% (70%≤value<90%). “D” represents a % inhibition value of equal or more than 90% (value ≥90%). In Table 7, the fold-change values are reported as “A”, “B”, “C”, or “D”. “A” represents a fold-change value of equal to or less than 0.1 (value ≤0.1). “B” represents a fold-change value of more than 0.1 and equal to or less than 0.5 (0.1<value≤0.5). “C” represents a fold-change value of more than 0.5 and equal to or less than 1 (0.5<value≤1). “D” represents a fold-change value of more than 1 (value >1).
# T2 sequence (P48729 whole entry): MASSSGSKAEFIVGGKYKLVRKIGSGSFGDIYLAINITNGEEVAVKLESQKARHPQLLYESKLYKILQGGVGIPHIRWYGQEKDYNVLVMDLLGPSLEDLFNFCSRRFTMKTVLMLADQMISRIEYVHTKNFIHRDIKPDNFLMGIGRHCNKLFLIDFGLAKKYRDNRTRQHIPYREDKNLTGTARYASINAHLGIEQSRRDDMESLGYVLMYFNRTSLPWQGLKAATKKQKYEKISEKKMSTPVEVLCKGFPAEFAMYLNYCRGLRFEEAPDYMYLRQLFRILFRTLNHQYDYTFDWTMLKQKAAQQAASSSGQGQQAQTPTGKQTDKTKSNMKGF
# T2 sequence (Q96SW2 whole entry): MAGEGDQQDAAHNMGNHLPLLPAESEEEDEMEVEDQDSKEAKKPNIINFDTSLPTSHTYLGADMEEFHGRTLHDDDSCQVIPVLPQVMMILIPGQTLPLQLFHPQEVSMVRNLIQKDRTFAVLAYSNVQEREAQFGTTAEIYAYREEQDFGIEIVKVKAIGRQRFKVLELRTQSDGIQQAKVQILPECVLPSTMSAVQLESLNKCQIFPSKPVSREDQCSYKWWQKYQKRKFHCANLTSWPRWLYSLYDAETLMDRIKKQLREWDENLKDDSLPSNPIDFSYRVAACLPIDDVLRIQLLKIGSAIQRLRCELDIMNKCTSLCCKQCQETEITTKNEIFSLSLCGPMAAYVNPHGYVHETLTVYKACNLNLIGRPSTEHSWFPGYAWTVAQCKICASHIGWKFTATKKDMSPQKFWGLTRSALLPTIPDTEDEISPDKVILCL
# T2 sequence (Q16531 whole entry partner): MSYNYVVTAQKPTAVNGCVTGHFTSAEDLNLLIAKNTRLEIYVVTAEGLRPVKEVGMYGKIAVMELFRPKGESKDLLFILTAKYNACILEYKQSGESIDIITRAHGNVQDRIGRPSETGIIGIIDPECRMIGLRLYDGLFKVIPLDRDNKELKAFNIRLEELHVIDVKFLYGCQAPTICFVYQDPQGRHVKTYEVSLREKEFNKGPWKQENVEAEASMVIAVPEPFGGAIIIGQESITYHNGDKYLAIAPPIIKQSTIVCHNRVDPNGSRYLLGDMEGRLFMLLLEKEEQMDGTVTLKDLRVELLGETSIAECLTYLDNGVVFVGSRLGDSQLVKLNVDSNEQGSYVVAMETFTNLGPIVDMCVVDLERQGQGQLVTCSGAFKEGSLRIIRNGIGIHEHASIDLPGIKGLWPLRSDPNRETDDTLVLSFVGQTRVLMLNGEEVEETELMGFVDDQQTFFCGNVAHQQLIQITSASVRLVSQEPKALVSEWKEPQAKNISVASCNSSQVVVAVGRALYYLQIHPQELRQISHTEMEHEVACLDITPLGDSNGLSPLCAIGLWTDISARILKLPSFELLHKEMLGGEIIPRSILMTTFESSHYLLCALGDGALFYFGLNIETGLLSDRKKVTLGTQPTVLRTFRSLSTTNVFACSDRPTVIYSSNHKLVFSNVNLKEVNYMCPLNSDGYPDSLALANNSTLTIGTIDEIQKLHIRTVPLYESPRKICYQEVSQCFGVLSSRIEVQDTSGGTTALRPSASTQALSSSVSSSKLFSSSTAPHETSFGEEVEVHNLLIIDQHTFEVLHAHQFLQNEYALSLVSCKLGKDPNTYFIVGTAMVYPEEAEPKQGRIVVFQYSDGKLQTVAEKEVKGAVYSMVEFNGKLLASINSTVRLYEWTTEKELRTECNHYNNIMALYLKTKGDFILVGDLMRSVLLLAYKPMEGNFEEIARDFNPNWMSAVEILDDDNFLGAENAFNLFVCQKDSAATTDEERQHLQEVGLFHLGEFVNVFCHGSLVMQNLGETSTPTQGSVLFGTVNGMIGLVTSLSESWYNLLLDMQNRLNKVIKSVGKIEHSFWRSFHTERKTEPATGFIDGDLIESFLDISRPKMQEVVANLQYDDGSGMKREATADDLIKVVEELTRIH
# T3 sequence (P15170 whole entry): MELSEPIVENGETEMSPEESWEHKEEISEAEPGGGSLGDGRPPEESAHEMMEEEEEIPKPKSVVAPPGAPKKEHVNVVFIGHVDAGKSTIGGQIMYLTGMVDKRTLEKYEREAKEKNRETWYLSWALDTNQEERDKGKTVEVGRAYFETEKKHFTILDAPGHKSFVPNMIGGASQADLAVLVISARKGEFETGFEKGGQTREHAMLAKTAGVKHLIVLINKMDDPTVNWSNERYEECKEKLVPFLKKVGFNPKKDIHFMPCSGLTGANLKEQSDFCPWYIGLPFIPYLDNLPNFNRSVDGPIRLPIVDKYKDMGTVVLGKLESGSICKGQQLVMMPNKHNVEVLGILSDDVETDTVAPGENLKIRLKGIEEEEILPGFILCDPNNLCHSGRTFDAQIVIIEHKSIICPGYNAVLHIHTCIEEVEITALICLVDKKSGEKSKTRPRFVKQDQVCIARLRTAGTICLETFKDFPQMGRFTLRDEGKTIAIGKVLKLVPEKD
# T3 sequence (Q96SW2 whole entry): as the sequence (Q96SW2 whole entry) above
# T3 sequence (Q16531 whole entry partner): as the sequence (Q16531 whole entry partner) above
# T1 sequence (Q13422 whole entry): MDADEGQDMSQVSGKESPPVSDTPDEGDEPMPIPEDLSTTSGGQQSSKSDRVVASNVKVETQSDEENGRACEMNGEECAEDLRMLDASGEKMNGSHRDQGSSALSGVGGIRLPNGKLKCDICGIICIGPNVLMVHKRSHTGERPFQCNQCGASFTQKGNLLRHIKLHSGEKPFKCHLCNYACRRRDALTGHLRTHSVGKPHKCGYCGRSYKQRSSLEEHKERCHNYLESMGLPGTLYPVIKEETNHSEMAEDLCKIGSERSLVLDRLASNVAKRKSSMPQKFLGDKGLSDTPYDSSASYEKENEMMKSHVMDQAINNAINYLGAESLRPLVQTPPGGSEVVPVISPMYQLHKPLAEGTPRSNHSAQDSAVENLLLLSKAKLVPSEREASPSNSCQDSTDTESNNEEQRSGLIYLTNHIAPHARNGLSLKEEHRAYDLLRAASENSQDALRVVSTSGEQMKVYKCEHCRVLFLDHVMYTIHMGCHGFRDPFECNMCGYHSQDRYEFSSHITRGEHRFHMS
# T1 sequence (Q96SW2 whole entry): as the sequence (Q96SW2 whole entry) above
# T1 sequence (Q16531 whole entry partner): as the sequence (Q16531 whole entry partner) above
# T5 sequence (Q00536 whole entry): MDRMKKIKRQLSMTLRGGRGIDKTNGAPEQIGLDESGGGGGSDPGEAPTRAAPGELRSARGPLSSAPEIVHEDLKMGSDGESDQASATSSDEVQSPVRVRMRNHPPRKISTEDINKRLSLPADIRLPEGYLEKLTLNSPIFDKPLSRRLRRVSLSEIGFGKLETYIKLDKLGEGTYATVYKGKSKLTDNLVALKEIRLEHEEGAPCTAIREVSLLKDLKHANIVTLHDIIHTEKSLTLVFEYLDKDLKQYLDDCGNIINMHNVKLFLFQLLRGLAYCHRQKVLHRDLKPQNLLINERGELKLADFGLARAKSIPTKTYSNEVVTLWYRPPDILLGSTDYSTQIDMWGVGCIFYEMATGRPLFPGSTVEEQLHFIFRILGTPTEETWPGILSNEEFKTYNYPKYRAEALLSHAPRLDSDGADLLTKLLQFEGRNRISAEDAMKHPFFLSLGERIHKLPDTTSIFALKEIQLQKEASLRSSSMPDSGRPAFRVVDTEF
# T4 sequence (P50750 whole entry): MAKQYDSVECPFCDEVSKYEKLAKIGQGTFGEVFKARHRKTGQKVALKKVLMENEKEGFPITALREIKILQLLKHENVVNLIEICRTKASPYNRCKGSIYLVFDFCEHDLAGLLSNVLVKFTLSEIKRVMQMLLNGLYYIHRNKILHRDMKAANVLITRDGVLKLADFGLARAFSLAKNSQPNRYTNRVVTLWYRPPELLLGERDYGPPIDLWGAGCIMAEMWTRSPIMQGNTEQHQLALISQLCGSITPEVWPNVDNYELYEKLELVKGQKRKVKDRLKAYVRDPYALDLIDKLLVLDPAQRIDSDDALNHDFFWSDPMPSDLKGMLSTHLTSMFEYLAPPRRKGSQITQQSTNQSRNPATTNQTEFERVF
Structure (SMILES),Dmax at 1 µM (IKAROS) [%],Dmax at 1 µM (CK1α) [%],Dmax at 1 µM (GSPT1) [%],Dmax at 0.1 µM (CDK9) [%],Dmax at 1 µM (CDK9) [%],Dmax at 0.1 µM (CDK16) [%],Dmax at 1 µM (CDK16) [%],viability at 1 µM (MOLM-13 cells) [%],inhibition at 1 µM (IL-1β) [%],inhibition at 1 µM (IL-6) [%],inhibition at 1 µM (TNF-α) [%],fold induction at 1 µM (IL-2)
"Cn1ncc(-c2nc(N[C@H]3CC[C@H](NCC(=O)NCCCCCNCC(=O)NCc4cc5c(s4)C(=O)N(C4CCC(=O)NC4=O)C5)CC3)ncc2Cl)c1CC1CC1 (some centres unmarked) [Compound 30, 2-(((1r,4r)-4-((5-chloro-4-(5-(cyclopropylmethyl)-1-methyl-1H-pyrazol-4-yl)pyrimidin-2-yl)amino)cyclohexyl)amino)-N-(5-((2-(((5-(2,6-dioxopiperidin-3-yl)-6-oxo-5,6-dihydro-4H-thieno[2,3-c]pyrrol-2-yl)methyl)amino)-2-oxoethyl)amino)pentyl)acetamide]",50 to 75,< 25,50 to 75,50 to 75,50 to 75,25 to 50,50 to 75,> 90,–,–,–,–
"CC(C)(C)c1cnc(CSc2cnc(NC(=O)C3CCN(CC(=O)NCCCCCNCC(=O)NCc4scc5c4CN(C4CCC(=O)NC4=O)C5=O)CC3)s2)o1 (centres unmarked) [Compound 33, N-(5-(((5-(tert-butyl)oxazol-2-yl)methyl)thio)thiazol-2-yl)-1-(2-((5-((2-(((5-(2,6-dioxopiperidin-3-yl)-4-oxo-5,6-dihydro-4H-thieno[3,4-c]pyrrol-1-yl)methyl)amino)-2-oxoethyl)amino)pentyl)amino)-2-oxoethyl)piperidine-4-carboxamide]",50 to 75,≥ 75,≥ 75,≥ 75,≥ 75,< 25,50 to 75,> 90,–,–,–,–
"Cn1ncc(-c2nc(N[C@H]3CC[C@H](NCC(=O)NCCCCNCC(=O)NCc4cc5c(s4)C(=O)N(C4CCC(=O)NC4=O)C5)CC3)ncc2Cl)c1CC1CC1 (some centres unmarked) [Compound 35, 2-(((1r,4r)-4-((5-chloro-4-(5-(cyclopropylmethyl)-1-methyl-1H-pyrazol-4-yl)pyrimidin-2-yl)amino)cyclohexyl)amino)-N-(4-((2-(((5-(2,6-dioxopiperidin-3-yl)-6-oxo-5,6-dihydro-4H-thieno[2,3-c]pyrrol-2-yl)methyl)amino)-2-oxoethyl)amino)butyl)acetamide]",50 to 75,25 to 50,≥ 75,25 to 50,25 to 50,< 25,50 to 75,> 90,–,–,–,–
"Cn1ncc(-c2nc(N[C@H]3CC[C@H](NCC(=O)NCCCCNCC(=O)NCc4scc5c4CN(C4CCC(=O)NC4=O)C5=O)CC3)ncc2F)c1CC1CC1 (some centres unmarked) [Compound 39, 2-(((1r,4r)-4-((4-(5-(cyclopropylmethyl)-1-methyl-1H-pyrazol-4-yl)-5-fluoropyrimidin-2-yl)amino)cyclohexyl)amino)-N-(4-((2-(((5-(2,6-dioxopiperidin-3-yl)-4-oxo-5,6-dihydro-4H-thieno[3,4-c]pyrrol-1-yl)methyl)amino)-2-oxoethyl)amino)butyl)acetamide]",25 to 50,25 to 50,50 to 75,25 to 50,≥ 75,< 25,≥ 75,> 90,–,–,–,–
"Cn1ncc(-c2nc(N[C@H]3CC[C@H](NCC(=O)NCCNCC(=O)NCc4cc5c(s4)C(=O)N(C4CCC(=O)NC4=O)C5)CC3)ncc2Cl)c1CC1CC1 (some centres unmarked) [Compound 40, 2-(((1r,4r)-4-((5-chloro-4-(5-(cyclopropylmethyl)-1-methyl-1H-pyrazol-4-yl)pyrimidin-2-yl)amino)cyclohexyl)amino)-N-(2-((2-(((5-(2,6-dioxopiperidin-3-yl)-6-oxo-5,6-dihydro-4H-thieno[2,3-c]pyrrol-2-yl)methyl)amino)-2-oxoethyl)amino)ethyl)acetamide]",50 to 75,25 to 50,≥ 75,50 to 75,≥ 75,25 to 50,50 to 75,70 to 90,–,–,–,–
"Cn1ncc(-c2nc(N[C@H]3CC[C@H](NCC(=O)NCCOCCOCCOCCNC(=O)NCc4cc5c(s4)C(=O)N(C4CCC(=O)NC4=O)C5)CC3)ncc2Cl)c1CC1CC1 (some centres unmarked) [Compound 46, 2-(((1r,4r)-4-((5-chloro-4-(5-(cyclopropylmethyl)-1-methyl-1H-pyrazol-4-yl)pyrimidin-2-yl)amino)cyclohexyl)amino)-N-(1-(5-(2,6-dioxopiperidin-3-yl)-6-oxo-5,6-dihydro-4H-thieno[2,3-c]pyrrol-2-yl)-3-oxo-7,10,13-trioxa-2,4-diazapentadecan-15-yl)acetamide]",–,–,–,–,–,–,–,> 90,70 to 90,70 to 90,50 to 70,0.1 to 0.5
"CC(C)(C)c1cnc(CSc2cnc(NC(=O)C3CCN(CC(=O)NCCCNCC(=O)NCc4cc5c(s4)C(=O)N(C4CCC(=O)NC4=O)C5)CC3)s2)o1 (centres unmarked) [Compound 52, N-(5-(((5-(tert-butyl)oxazol-2-yl)methyl)thio)thiazol-2-yl)-1-(2-((3-((2-(((5-(2,6-dioxopiperidin-3-yl)-6-oxo-5,6-dihydro-4H-thieno[2,3-c]pyrrol-2-yl)methyl)amino)-2-oxoethyl)amino)propyl)amino)-2-oxoethyl)piperidine-4-carboxamide]",25 to 50,25 to 50,50 to 75,–,–,–,–,> 90,–,–,–,–
"Cn1ncc(-c2nc(N[C@H]3CC[C@H](NCCOCCOCCOCCOCCNc4cccc5c4C(=O)N(C4CCC(=O)NC4=O)C5=O)CC3)ncc2Cl)c1CC1CC1 (some centres unmarked) [Compound 64, 4-((14-(((1r,4r)-4-((5-chloro-4-(5-(cyclopropylmethyl)-1-methyl-1H-pyrazol-4-yl)pyrimidin-2-yl)amino)cyclohexyl)amino)-3,6,9,12-tetraoxatetradecyl)amino)-2-(2,6-dioxopiperidin-3-yl)isoindoline-1,3-dione]",≥ 75,25 to 50,≥ 75,–,–,–,–,> 90,–,–,–,–
